In patent publication US10017827B2, “Herbicide-resistant sunflower plants with multiple herbicide resistant alleles of AHASL1 and methods of use” (BASF AGROCHEMICAL PRODUCTS B.V., priority 2007, dated 2018):
Read-outs that look alike come from different tables or passages of the source. Marks after values point to notes of the source that are not given here.

Assays:
[1] = system: AHAS enzyme, WT line (B7); assay: Enzyme assay for AHAS activity, Sets 1 and 2; details: 100 μM imazamox
[2] = system: sunflower line B770 (WT); assay: Greenhouse whole-plant response to metsulfuron; details: 14 DAT
[3] = system: sunflower line GM1606 (A122T/A122T); assay: Greenhouse whole-plant response to metsulfuron; details: 14 DAT
[4] = system: sunflower line GM40 (A122T/A122T); assay: Greenhouse whole-plant response to metsulfuron; details: 14 DAT
[5] = system: sunflower line L4 (A122T/A122T); assay: Greenhouse whole-plant response to metsulfuron; details: 14 DAT
[6] = system: sunflower hybrid cmsGM40xL4 (A122T/A122T); assay: Greenhouse whole-plant response to metsulfuron; details: 14 DAT
[7] = system: sunflower hybrid cmsGM40xBTSu-R1 (A122T/P197L); assay: Greenhouse whole-plant response to metsulfuron; details: 14 DAT
[8] = system: A122T sunflower genotypes (mean of H2, L3, L4); assay: Greenhouse whole-plant response to imazapyr; type: in vivo; details: 14 DAT
Excerpt: (§1) Experiment was arranged as a randomized block design with a full factorial (sunflower line×treatment) arrangement of treatments and 10 replications.

[9] = system: sunflower line L3 (cmsGM40, A122T); assay: Greenhouse whole-plant response to imazapyr; type: in vivo; details: 14 DAT
Excerpt: as §1

[10] = system: sunflower line L4 (A122T); assay: Greenhouse whole-plant response to imazapyr; type: in vivo; details: 14 DAT
Excerpt: as §1

[11] = system: sunflower line GM40 (A122T); type: in vivo; details: 160 gr/ha at V4, 14 DAT
[12] = system: sunflower line L5 (BTK 47, WT susceptible); details: for biomass accumulation, % of untreated: L5, 14 DAT
[13] = A122T mean (H2,L3,L4), 2x (160 g ai/ha)
[14] = A122T mean (H2,L3,L4), 3x (240 g ai/ha)

COCc1cnc(C2=NC(C)(C(C)C)C(=O)N2)c(C(=O)O)c1 (stereo not shown) [imazamox]
AHAS activity, % of untreated control ([1]; Set 1): 17% | AHAS activity, % of untreated control ([1]; Set 2): 11%

COC(=O)c1ccccc1S(=O)(=O)NC(=O)Nc1nc(C)nc(OC)n1 [metsulfuron]
Dry Matter accumulation (DMA) ([2]; 1X (5 g ai./ha)): 28.43^b | Mean Height Reduction (PH) ([2]; 1X (5 g ai./ha)): 21.73^a* | Phytotoxicity Index (PI, 0-9) ([2]; 1X (5 g ai./ha)): 8.50^bc | Dry Matter accumulation (DMA) ([2]; 2X (10 g ai./ha)): 28.77^b | Mean Height Reduction (PH) ([2]; 2X (10 g ai./ha)): 18.20^a | Phytotoxicity Index (PI, 0-9) ([2]; 2X (10 g ai./ha)): 9.00^d | Dry Matter accumulation (DMA) ([3]; 1X (5 g ai./ha)): 30.39^b | Mean Height Reduction (PH) ([3]; 1X (5 g ai./ha)): 21.55^a | Phytotoxicity Index (PI, 0-9) ([3]; 1X (5 g ai./ha)): 8.70^d | Dry Matter accumulation (DMA) ([3]; 2X (10 g ai./ha)): 20.45^a | Mean Height Reduction (PH) ([3]; 2X (10 g ai./ha)): 21.70^a | Phytotoxicity Index (PI, 0-9) ([3]; 2X (10 g ai./ha)): 9.00^d | Dry Matter accumulation (DMA) ([4]; 1X (5 g ai./ha)): 25.73^ab | Mean Height Reduction (PH) ([4]; 1X (5 g ai./ha)): 21.39^a | Phytotoxicity Index (PI, 0-9) ([4]; 1X (5 g ai./ha)): 9.00^d | Dry Matter accumulation (DMA) ([4]; 2X (10 g ai./ha)): 20.69^a | Mean Height Reduction (PH) ([4]; 2X (10 g ai./ha)): 21.17^a | Phytotoxicity Index (PI, 0-9) ([4]; 2X (10 g ai./ha)): 9.00^d | Dry Matter accumulation (DMA) ([5]; 1X (5 g ai./ha)): 25.40^ab | Mean Height Reduction (PH) ([5]; 1X (5 g ai./ha)): 19.47^a | Phytotoxicity Index (PI, 0-9) ([5]; 1X (5 g ai./ha)): 8.25^b | Dry Matter accumulation (DMA) ([5]; 2X (10 g ai./ha)): 18.80^a | Mean Height Reduction (PH) ([5]; 2X (10 g ai./ha)): 18.73^a | Phytotoxicity Index (PI, 0-9) ([5]; 2X (10 g ai./ha)): 8.5^c | Dry Matter accumulation (DMA) ([6]; 1X (5 g ai./ha)): 19.90^a | Mean Height Reduction (PH) ([6]; 1X (5 g ai./ha)): 22.45^a | Phytotoxicity Index (PI, 0-9) ([6]; 1X (5 g ai./ha)): 8.67^d | Dry Matter accumulation (DMA) ([6]; 2X (10 g ai./ha)): 18.23^a | Mean Height Reduction (PH) ([6]; 2X (10 g ai./ha)): 20.56^a | Phytotoxicity Index (PI, 0-9) ([6]; 2X (10 g ai./ha)): 8.82^cd | Mean Height Reduction (PH) ([7]; 1X (5 g ai./ha)): 77.04^b | Phytotoxicity Index (PI, 0-9) ([7]; 1X (5 g ai./ha)): 0.00^a | Dry Matter accumulation (DMA) ([7]; 2X (10 g ai./ha)): 72.66^c

CC(C)C1(C)N=C(c2ncccc2C(=O)O)NC1=O (stereo not shown) [imazapyr]
height reduction, % of untreated controls ([8]; A122T homozygous, 0.5x): 0.1% | height reduction, % of untreated controls ([8]; A122T homozygous, 6x): 18.8% | reduction in biomass weight ([8]; A122T homozygous, higher dose (6x)): 25% | Phytotoxicity Index (0-9) ([8]; A122T mean (H2,L3,L4), 0.5x (40 g ai/ha)): 0.3 | Phytotoxicity Index (0-9) ([8]; A122T mean (H2,L3,L4), 1x (80 g ai/ha)): 0.3 | Phytotoxicity Index (0-9) [8, 13]: 0.3 | plant height, % of untreated [8, 13]: 98.0% | Phytotoxicity Index (0-9) [8, 14]: 0.3 | biomass accumulation, % of untreated [8, 14]: 90.0** % | Phytotoxicity Index (0-9) ([8]; A122T mean (H2,L3,L4), 4x (320 g ai/ha)): 0.5 | Phytotoxicity Index (0-9) ([8]; A122T mean (H2,L3,L4), 5x (400 g ai/ha)): 0.8 | Phytotoxicity Index (0-9) ([8]; A122T mean (H2,L3,L4), 6x (480 g ai/ha)): 1.2 | Phytotoxicity Index (0-9) ([9]; 0.5x (40 g ai/ha)): 0.4 | Phytotoxicity Index (0-9) ([9]; 1x (80 g ai/ha)): 0.4 | Phytotoxicity Index (0-9) ([9]; 2x (160 g ai/ha)): 0.4 | plant height, % of untreated ([9]; 2x (160 g ai/ha)): 92.0% | Phytotoxicity Index (0-9) ([9]; 3x (240 g ai/ha)): 0.5 | Phytotoxicity Index (0-9) ([9]; 4x (320 g ai/ha)): 1.0 | biomass accumulation, % of untreated ([9]; 4x (320 g ai/ha)): 75.0% | Phytotoxicity Index (0-9) ([9]; 5x (400 g ai/ha)): 2.0 | Phytotoxicity Index (0-9) ([9]; 6x (480 g ai/ha)): 2.5 | Phytotoxicity Index (0-9) ([10]; 0.5x (40 g ai/ha)): 0.0 | biomass accumulation, % of untreated ([10]; 0.5x (40 g ai/ha)): 100.0% | plant height, % of untreated ([10]; 0.5x (40 g ai/ha)): 100.0% | Phytotoxicity Index (0-9) ([10]; 1x (80 g ai/ha)): 0.0 | plant height, % of untreated ([10]; 1x (80 g ai/ha)): 100.0% | Phytotoxicity Index (0-9) ([10]; 2x (160 g ai/ha)): 0.0 | biomass accumulation, % of untreated ([10]; 2x (160 g ai/ha)): 97.0% | Phytotoxicity Index (0-9) ([10]; 3x (240 g ai/ha)): 0.0 | plant height, % of untreated ([10]; 3x (240 g ai/ha)): 97.0% | Phytotoxicity Index (0-9) ([10]; 4x (320 g ai/ha)): 0.0 | Phytotoxicity Index (0-9) ([10]; 5x (400 g ai/ha)): 0.0 | Phytotoxicity Index (0-9) ([10]; 6x (480 g ai/ha)): 0.5 | Mean Phytotoxicity Index (PI, 0-9) [11]: 0.2 | biomass accumulation, % of untreated ([12]; 1x (80 g ai/ha)): 15.0% | biomass accumulation, % of untreated ([12]; 2x (160 g ai/ha)): 15.0% | biomass accumulation, % of untreated ([12]; 3x (240 g ai/ha)): 15.0% | biomass accumulation, % of untreated ([12]; 4x (320 g ai/ha)): 15.0% | biomass accumulation, % of untreated ([12]; 5x (400 g ai/ha)): 15.0% | biomass accumulation, % of untreated ([12]; 6x (480 g ai/ha)): 15.0% | Phytotoxicity Index (0-9) ([12]; in vivo): 9
